Experimental data reported in article PMC10044120, “Potent and selective covalent inhibition of the papain-like protease from SARS-CoV-2” (Nature Communications, 2023).
Several values for one entry are separate records, joined by “and”; a condition that tells them apart may be missing. Identical values can stand only once. Like-named read-outs stand apart in the source and are kept apart here.

Key:
[1] = in vitro; conditions: African green monkey
[2] = tested on: Vero E6 cells; conditions: African green monkey, 48 h
[3] = tested on: SARS-CoV-2 isolate USA-WA1/2020; conditions: for EC50 (cytopathic effect): SARS-CoV-2-infected Vero E6 cells, 48 h; for inhibition: read-out: cytopathic effect, % cell viability, duplicate wells
[4] = molecular target: T1, PLpro from SARS-CoV-2 (Severe acute respiratory syndrome coronavirus 2, UniProt P0DTD1); experiment: biochemical; format: biochemical; conditions: for remaining activity at 0.2 µM: inhibitor 0.20 uM; for remaining activity at 200 µM: inhibitor 200.00 uM; for IC50: after 30-min incubation, purified PLpro, Z-RLRGG-AMC substrate
[5] = molecular target: T1, PLpro from SARS-CoV-2; experiment: biochemical; format: biochemical; set-up: mean (kobs plot, Supplementary Figure 6 II): unit: min^-1; conditions: for Time dep. (time-dependent inhibition): fluorogenic peptide assay, varied preincubation time
[6] = tested on: SARS-CoV-2 isolate USA-WA1/2020; experiment: microbe, parasite or virus in culture; conditions: for inhibition at […]: Severe acute respiratory syndrome coronavirus 2, Vero C1008, read-out: cytopathic effect, % cell viability; for inhibition at 2.08 µM: Severe acute respiratory syndrome coronavirus 2, Vero C1008, read-out: cytopathic effect, % cell viability, [inhibitor] 2.08 uM

Question: Which CC50 at 48 h ([1]; CC50) does the source give for C#CC(=O)NNC(=O)CCc1ccccc1C(=O)N[C@H](C)c1cccc2ccccc12 [Compound 12, (R)-N-(1-(naphthalen-1-yl)ethyl)-2-(3-oxo-3-(2-propioloylhydrazineyl)propyl)benzamide] here?
Answer: 1000 to 5000 nM

Question: And the viability at 48 h, 8.33 µM ([1]; cytotoxicity, %cell viability)?
Answer: 0.83%

Question: And the viability at 48 h, 16.67 µM ([1]; cytotoxicity, %cell viability)?
Answer: 0.57%

Question: What about the viability at 48 h, 33.33 µM ([1]; cytotoxicity, %cell viability) of the same compound?
Answer: 1.02%

Question: And the “cytotoxicity, %cell viability” value ([2]; 16.67 µM)?
Answer: 0.55%

Question: What about the “cytotoxicity, %cell viability” value ([2]; 33.33 µM) of the same compound?
Answer: 0.51%

Question: And the “EC50 (cytopathic effect)” value [3]?
Answer: No CPE

Question: What about the remaining activity at 0.06 µM ([4]; 0.5 h, inhibitor 0.06 uM) of the same compound?
Answer: 75.9%

Question: And the remaining activity at 0.2 µM ([4]; 0.5 h)?
Answer: 14.8%

Question: What about the remaining activity at 200 µM ([4]; 0.5 h) of the same compound?
Answer: 2.39%

Question: And the IC50 [4]?
Answer: 98 nM

Question: What about the kinact/KI [5] of the same compound?
Answer: 4100 M⁻¹ s⁻¹

Question: And the remaining activity at 0.2 µM ([5]; 5 min, read-out: PLpro activity after preincubation, inhibitor 0.2 uM, preincubation 5 min)?
Answer: 80%

Question: What about the remaining activity at 0.5 µM ([5]; 5 min, read-out: PLpro activity after preincubation, inhibitor 0.5 uM, preincubation 5 min) of the same compound?
Answer: 68.1%

Question: What about the remaining activity at 0.6 µM ([5]; 5 min, read-out: PLpro activity after preincubation, inhibitor 0.6 uM, preincubation 5 min) of the same compound?
Answer: 59%

Question: What about the remaining activity at 0.7 µM ([5]; 5 min, read-out: PLpro activity after preincubation, inhibitor 0.7 uM, preincubation 5 min) of the same compound?
Answer: 46.3%

Question: And the remaining activity at 0.2 µM ([5]; 10 min, read-out: PLpro activity after preincubation, inhibitor 0.2 uM, preincubation 10 min)?
Answer: 69.8%

Question: And the remaining activity at 0.5 µM ([5]; 10 min, read-out: PLpro activity after preincubation, inhibitor 0.5 uM, preincubation 10 min)?
Answer: 40.2%

Question: And the remaining activity at 0.6 µM ([5]; 10 min, read-out: PLpro activity after preincubation, inhibitor 0.6 uM, preincubation 10 min)?
Answer: 41.8%

Question: What about the remaining activity at 0.7 µM ([5]; 10 min, read-out: PLpro activity after preincubation, inhibitor 0.7 uM, preincubation 10 min) of the same compound?
Answer: 29.5%

Question: And the remaining activity at 0.2 µM ([5]; 0.5 h, read-out: PLpro activity after preincubation, inhibitor 0.2 uM, preincubation 30 min)?
Answer: 87.5%

Question: And the remaining activity at 0.3 µM ([5]; 0.5 h, read-out: PLpro activity after preincubation, inhibitor 0.3 uM, preincubation 30 min)?
Answer: 71%

Question: What about the remaining activity at 0.5 µM ([5]; 0.5 h, read-out: PLpro activity after preincubation, inhibitor 0.5 uM, preincubation 30 min) of the same compound?
Answer: 14.4%

Question: What about the remaining activity at 0.7 µM ([5]; 0.5 h, read-out: PLpro activity after preincubation, inhibitor 0.7 uM, preincubation 30 min) of the same compound?
Answer: 7.89%

Question: What about the remaining activity at 0.2 µM ([5]; 1 h, read-out: PLpro activity after preincubation, inhibitor 0.2 uM, preincubation 60 min) of the same compound?
Answer: 83.5%

Question: What about the remaining activity at 0.6 µM ([5]; 1 h, read-out: PLpro activity after preincubation, inhibitor 0.6 uM, preincubation 60 min) of the same compound?
Answer: 2.72%

Question: What about the remaining activity at 0.2 µM ([5]; […], read-out: PLpro activity after preincubation, inhibitor 0.2 uM, preincubation 15 min) of the same compound?
Answer: 82%

Question: What about the remaining activity at 0.2 µM ([5]; […], read-out: PLpro activity after preincubation, inhibitor 0.2 uM, preincubation 45 min) of the same compound?
Answer: 75.3%

Question: And the remaining activity at 0.2 µM ([5]; […], read-out: PLpro activity after preincubation, inhibitor 0.2 uM, preincubation 90 min)?
Answer: 60%

Question: What about the remaining activity at 0.3 µM ([5]; […], read-out: PLpro activity after preincubation, inhibitor 0.3 uM, preincubation 90 min) of the same compound?
Answer: 15.6%

Question: What about the remaining activity at 0.5 µM ([5]; […], read-out: PLpro activity after preincubation, inhibitor 0.5 uM, preincubation 15 min) of the same compound?
Answer: 34.6%

Question: What about the remaining activity at 0.5 µM ([5]; […], read-out: PLpro activity after preincubation, inhibitor 0.5 uM, preincubation 45 min) of the same compound?
Answer: 1.63%

Question: What about the remaining activity at 0.6 µM ([5]; […], read-out: PLpro activity after preincubation, inhibitor 0.6 uM, preincubation 15 min) of the same compound?
Answer: 27.5%

Question: And the remaining activity at 0.7 µM ([5]; […], read-out: PLpro activity after preincubation, inhibitor 0.7 uM, preincubation 15 min)?
Answer: 17.8%

Question: And the “Time dep. (time-dependent inhibition)” value [5]?
Answer: Time-dependent inhibition was observed and Yes

Question: And the “mean (kobs plot, Supplementary Figure 6 II)” value (“mean” below) ([5]; inhibitor 0.20 uM)?
Answer: 0.0069

Question: What about the “mean” value ([5]; inhibitor 0.30 uM) of the same compound?
Answer: 0.0173

Question: What about the “mean” value ([5]; inhibitor 0.5 uM) of the same compound?
Answer: 0.0760

Question: And the “mean” value ([5]; inhibitor 0.6 uM)?
Answer: 0.0965

Question: And the “mean” value ([5]; inhibitor 0.7 uM)?
Answer: 0.1287

Question: And the inhibition at […] [6]?
Answer: 6.23%

Question: With COC(=O)CCc1ccccc1C(=O)N[C@H](C)c1cccc2ccccc12 [Compound 3, methyl (R)−3-(2-((1-(naphthalen-1-yl)ethyl)carbamoyl)phenyl)propanoate] as the compound, how does the viability at 48 h, 2.08 µM ([1]; cytotoxicity, %cell viability) read?
Answer: 105%

Question: And the viability at 48 h, 8.33 µM ([1]; cytotoxicity, %cell viability)?
Answer: 93.2%

Question: And the viability at 48 h, 16.65 µM ([1]; cytotoxicity, %cell viability)?
Answer: 92%

Question: What about the “cytotoxicity, %cell viability” value ([2]; 2.08 µM) of the same compound?
Answer: 99.61%

Question: What about the “cytotoxicity, %cell viability” value ([2]; 8.33 µM) of the same compound?
Answer: 97.36%

Question: What about the “cytotoxicity, %cell viability” value ([2]; 16.65 µM) of the same compound?
Answer: 90.64%

Question: What about the inhibition ([3]; [inhibitor] 2.08 uM, 2.08 µM) of the same compound?
Answer: 8.63%

Question: And the remaining activity at 100 µM ([4]; 0.5 h, inhibitor 100.00 uM)?
Answer: 78.6%

Question: What about the remaining activity at […] ([4]; 0.5 h, read-out: % Plpro activity) of the same compound?
Answer: 119% and 108%

Question: What about the inhibition at 2.08 µM ([6]; duplicate wells) of the same compound?
Answer: 7.81%

Question: Which viability at 48 h, 2.08 µM ([1]; cytotoxicity, %cell viability) does the source give for C[C@@H](NC(=O)c1ccccc1CCC(=O)NNC(=O)CC#N)c1cccc2ccccc12 [Compound 11, (R)-2-(3-(2-(2-cyanoacetyl)hydrazineyl)-3-oxopropyl)-N-(1-(naphthalen-1-yl)ethyl)benzamide] here?
Answer: 101%

Question: And the viability at 48 h, 8.33 µM ([1]; cytotoxicity, %cell viability)?
Answer: 94%

Question: And the viability at 48 h, 16.67 µM ([1]; cytotoxicity, %cell viability)?
Answer: 88.6%

Question: What about the viability at 48 h, 33.33 µM ([1]; cytotoxicity, %cell viability) of the same compound?
Answer: 80.8%

Question: And the “cytotoxicity, %cell viability” value ([2]; 2.08 µM)?
Answer: 98.90%

Question: What about the “cytotoxicity, %cell viability” value ([2]; 8.33 µM) of the same compound?
Answer: 91.20%

Question: What about the “cytotoxicity, %cell viability” value ([2]; 16.67 µM) of the same compound?
Answer: 87.90%

Question: What about the “cytotoxicity, %cell viability” value ([2]; 33.33 µM) of the same compound?
Answer: 80.50%

Question: What about the “EC50 (cytopathic effect)” value [3] of the same compound?
Answer: No CPE

Question: What about the inhibition ([3]; [inhibitor] 2.08 uM, 2.08 µM) of the same compound?
Answer: 4.7%

Question: And the remaining activity at 0.02 µM ([4]; 0.5 h, inhibitor 0.02 uM)?
Answer: 84.4%

Question: And the remaining activity at 0.2 µM ([4]; 0.5 h)?
Answer: 89.9%

Question: And the remaining activity at 2.01 µM ([4]; 0.5 h, inhibitor 2.01 uM)?
Answer: 71.3%

Question: What about the remaining activity at 6.34 µM ([4]; 0.5 h, inhibitor 6.34 uM) of the same compound?
Answer: 46.4%

Question: What about the remaining activity at 20 µM ([4]; 0.5 h, inhibitor 20.00 uM) of the same compound?
Answer: 41.4%

Question: And the remaining activity at 200 µM ([4]; 0.5 h)?
Answer: 5.83%

Question: What about the IC50 [4] of the same compound?
Answer: 8000 nM

Question: What about the “Time dep. (time-dependent inhibition)” value [5] of the same compound?
Answer: not and No

Question: And the inhibition at […] [6]?
Answer: 9.7%

Question: What about the inhibition at 2.08 µM ([6]; duplicate wells) of the same compound?
Answer: 8%

Question: What does the source list for CCC(CC)COC(=O)[C@H](C)N[P@](=O)(OC[C@H]1O[C@@](C#N)(c2ccc3c(N)ncnn23)[C@H](O)[C@@H]1O)Oc1ccccc1 [remdesivir, reference compound]?
Answer: % cell viability, cytopathic effect ([3]; 5.00 uM): 97.274%; % cell viability, cytopathic effect ([3]; 10.00 uM): 97.073%; inhibition ([3]; [inhibitor] 5.00 uM, 5 µM): 97.3%; inhibition ([3]; [inhibitor] 10.00 uM, 10 µM): 97.1%; EC50 ([6]; Severe acute respiratory syndrome coronavirus 2, Vero C1008, 48 h, read-out: EC50 (cytopathic effect)): 740 nM; viability at 5 µM ([6]; Severe acute respiratory syndrome coronavirus 2, Vero C1008, read-out: % cell viability, cytopathic effect, 5.00 uM): 102%; viability at 10 µM ([6]; Severe acute respiratory syndrome coronavirus 2, Vero C1008, read-out: % cell viability, cytopathic effect, 10.00 uM): 101%; inhibition at 5 µM ([6]; Severe acute respiratory syndrome coronavirus 2, Vero C1008, read-out: cytopathic effect, % cell viability, [inhibitor] 5.00 uM, duplicate wells): 102%; inhibition at 10 µM ([6]; Severe acute respiratory syndrome coronavirus 2, Vero C1008, read-out: cytopathic effect, % cell viability, [inhibitor] 10.00 uM, duplicate wells): 101%
